Structures are written as SMILES.

EGFR, sequence (P00533 whole entry, looked up): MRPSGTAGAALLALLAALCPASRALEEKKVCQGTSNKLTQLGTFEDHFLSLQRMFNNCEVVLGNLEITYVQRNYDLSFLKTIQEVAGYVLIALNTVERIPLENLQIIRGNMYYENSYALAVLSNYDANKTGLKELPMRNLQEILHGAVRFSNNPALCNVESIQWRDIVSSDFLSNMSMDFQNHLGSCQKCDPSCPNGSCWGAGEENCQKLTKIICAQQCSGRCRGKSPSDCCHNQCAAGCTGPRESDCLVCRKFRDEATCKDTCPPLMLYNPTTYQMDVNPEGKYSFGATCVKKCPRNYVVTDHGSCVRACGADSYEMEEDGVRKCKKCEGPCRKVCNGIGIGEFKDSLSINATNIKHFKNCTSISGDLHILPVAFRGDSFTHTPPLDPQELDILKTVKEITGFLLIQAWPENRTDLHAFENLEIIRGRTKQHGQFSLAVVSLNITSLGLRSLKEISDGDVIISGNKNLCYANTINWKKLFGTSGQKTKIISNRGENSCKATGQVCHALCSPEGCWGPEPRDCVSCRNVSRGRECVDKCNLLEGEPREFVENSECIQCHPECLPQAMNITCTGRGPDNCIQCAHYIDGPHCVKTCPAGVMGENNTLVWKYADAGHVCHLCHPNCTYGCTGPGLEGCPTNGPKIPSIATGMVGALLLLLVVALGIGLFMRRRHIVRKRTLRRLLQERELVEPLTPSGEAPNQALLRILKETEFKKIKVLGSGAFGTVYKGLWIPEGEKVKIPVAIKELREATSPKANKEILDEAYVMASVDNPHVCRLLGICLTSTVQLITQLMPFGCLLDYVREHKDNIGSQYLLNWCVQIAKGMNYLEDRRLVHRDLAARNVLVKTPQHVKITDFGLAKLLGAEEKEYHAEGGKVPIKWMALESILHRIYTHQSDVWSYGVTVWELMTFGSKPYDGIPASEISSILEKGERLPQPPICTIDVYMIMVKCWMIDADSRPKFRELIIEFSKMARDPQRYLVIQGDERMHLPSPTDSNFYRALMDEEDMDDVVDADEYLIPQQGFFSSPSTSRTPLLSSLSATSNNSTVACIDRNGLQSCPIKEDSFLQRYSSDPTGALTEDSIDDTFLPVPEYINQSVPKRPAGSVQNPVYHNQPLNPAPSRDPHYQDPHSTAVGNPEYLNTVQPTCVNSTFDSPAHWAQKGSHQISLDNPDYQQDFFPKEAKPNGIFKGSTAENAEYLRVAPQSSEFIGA

In the first assay the target is EGFR (human) (UniProt P00533). The conditions noted are these: a431.
EGFR (human), sequence (P00533 whole entry, looked up): as above
Compound `COc1cc2c(cc1OC)C(Nc1cccc(Br)c1)=NC(C)(C)N2` had a 50% inhibitory concentration (IC50) of 130 µM.

Consider `COc1cc(N)c(C(=O)Nc2ccccn2)cc1OC`, for which the half-inhibitory concentration (IC50) is over 1000 µM.

For `COc1cc(N)c(C(=O)Nc2cccc(Br)c2)cc1OC`, the concentration for half-maximal inhibition (IC50) worked out at 340 µM.

Take `COc1cc(N)c(C(=O)Nc2ccncc2)cc1OC`: the IC50 is over 1000 µM.

Turning to `COc1cc(N)c(C(=O)Nc2cccnc2)cc1OC`, the IC50 was over 1000 µM.

In turn, `COc1cc2c(cc1OC)C(Nc1ccc(F)c(Cl)c1)=NC(C)(C)N2` showed an IC50 of 90 µM.

`COc1cc(N)c(C(=N)Nc2ccc(F)c(Cl)c2)cc1OC` had a half-maximal inhibitory concentration (IC50) of 200 µM.

Turning to `COc1cc(N)c(C(=N)Nc2cccc(Cl)c2)cc1OC`, the IC50 is 460 µM.

Regarding `COc1cccc(NC(=O)c2cc(OC)c(OC)cc2N)c1`, the half-inhibitory concentration (IC50) amounted to 200 µM. This IC50 is about 2.3-fold lower than that of the compound before.

For `COc1cc(N)c(C(=O)Nc2ccc(F)c(Cl)c2)cc1OC`, the IC50 was over 1000 µM.

`COc1cc(N)c(C(=O)Nc2cccc(C(F)(F)F)c2)cc1OC` returned a half-inhibitory concentration (IC50) of 470 µM.

For `COc1cc(N)c(C(=N)Nc2cccc(Br)c2)cc1OC`, the IC50 amounted to 300 µM.

Regarding `COc1cccc(NC2=NC(C)(C)Nc3cc(OC)c(OC)cc32)c1`, the IC50 amounted to 320 µM.

The compound `COc1cc(N)c(C(=O)NC2CCCCC2)cc1OC` registered an IC50 of over 1000 µM.

`COc1cccc(NC(=N)c2cc(OC)c(OC)cc2N)c1`: the IC50 is 340 µM.

Turning to `COc1cc(N)c(C(=O)Nc2cccc(Br)c2)c(OC)c1OC`, the IC50 stood at 920 µM.

Take `COc1cc(N)c(C(=O)NC(C)c2ccccc2)cc1OC` (stereo unspecified): the half-maximal inhibitory concentration (IC50) is over 1000 µM.

In the case of `COc1cc2c(cc1OC)C(Nc1cccc(Cl)c1)=NC(C)(C)N2`, the IC50 worked out at 200 µM.

A further assay concerns the target EGFR (UniProt P00533). The conditions noted are these: concentration not given here.
The compound `COc1cc(N)c(C(=N)Nc2ccc(F)c(Cl)c2)cc1OC` gave an inhibition of under 50%.

`COc1cc2ncnc(Nc3cccc(Cl)c3)c2cc1OC` displayed an inhibition of 10%.

Consider `COc1cc(N)c(C(=O)Nc2cccc(Br)c2)c(OC)c1OC`, for which the inhibition is under 50%.

The IC50 is the midpoint of a concentration-inhibition curve. Higher therefore signals weaker potency in that assay. For orientation: inhibition means the drop in the measured response relative to a control, in per cent. A higher inhibition goes with a strong effect.

For the origin of these results see the Kinase Knowledgebase extract (Sharma et al. 2016).
